Assay results reported in patent US20100310679A1, “NOVEL COMPOSITIONS FOR CONTROL OF MALICIOUS MARINE ANEMONES” (priority 2008, published 2010).

Experiments:
[1] = system: marine pest anemone; assay: Empirically determined effective concentration ranges of ingredients in agar-anemonescide-desensitizer preparation; assay type: in vivo; conditions: concentration of the ingredient in the agar-anemonescide-desensitizer preparation
Source text: Table 1 also lists the empirically determined effective concentration ranges of the various ingredients. While it is believed that less than the minimal effective concentrations might impair the effectiveness of that ingredient, and more than effective concentration will not further improve the effectiveness, it is to be understood that the table is provided by way of enablement and is not to be construed as limiting the invention to the preferred ranges.

[2] = system: sea anemone Anthopleura midorii; conditions: added to artificial food; cited from earlier work

SMILES | Empirically Determined Effective Concentration range (Min-Max) [1] | effect on feeding motions [2]
O.O.[Ca+2].[Cl-].[Cl-] [CaCl2•2H2O] | 10-500 g/l | 
O=S(=O)([O-])[O-].[Ca+2] [CaSO4, calcium sulphate] | 5 to 150 g/L | 
N[C@@H](CS)C(=O)O [Cysteine] |  | induced food ingestion
O=S(=O)([O-])[O-].[Mg+2] [MgSO4, magnesium sulphate] | 0.5 to 10 g/L | 
[Na+].[OH-] [NaOH, sodium hydroxide] | 5 to 120 g/L | 
C[C@H](N)C(=O)O [alanine] |  | stimulated the retention of artificial food by tentacles
NC(=O)C[C@H](N)C(=O)O [asparagine] |  | stimulated the retention of artificial food by tentacles
NCC(=O)O [glycine] |  | stimulated the retention of artificial food by tentacles
N[C@@H](Cc1c[nH]cn1)C(=O)O [histidine] |  | stimulated the retention of artificial food by tentacles
O=C(O)[C@@H]1CCCN1 [proline] |  | evoked mouth opening
N[C@@H](CCC(=O)N[C@@H](CS)C(=O)NCC(=O)O)C(=O)O [reduced glutathione (GSH), reduced glutathione] |  | induced food ingestion
